# Laboratory results: US7186831B2, “5-halo-2-alkyl[1,2,4]triazolo[1,5-a]pyrimidin-7-amines” (priority 2001, dated 2007)
# Experiment: log P by HPLC
# Assay type: physicochemical
# Settings: EEC directive 79/831 Annex V. A8 by HPLC (gradient method, acetonitrile/0.1% aqueous phosphoric acid)
row,logP,SMILES
1,3.59,C=CCN(CC)c1c(-c2c(F)cccc2Cl)c(Cl)nc2nc(C)nn12 [compound 267]
2,3.91,CCCN(CC1CC1)c1c(-c2ccc(F)cc2F)c(Cl)nc2nc(C)nn12 [compound 356]
3,2.2,CC(=O)NC1CCN(c2c(-c3ccc(F)cc3F)c(Cl)nc3nc(C4CC4)nn23)CC1 [compound 516]
4,2.74,Cc1nc2nc(Cl)c(-c3ccc(F)cc3F)c(N3CCCC3)n2n1 [compound 281]
5,3.58,CC(Nc1c(-c2c(F)cc(F)cc2F)c(Cl)nc2nc(C3CC3)nn12)C(F)(F)F (stereo not drawn) [compound 458]
6,4.22,Fc1cc(F)c(-c2c(Cl)nc3nc(C4CC4)nn3c2N2CCCCC2)c(F)c1 [compound 474]
7,4.66,CC1CCN(c2c(-c3c(F)cc(F)cc3F)c(Cl)nc3nc(C4CC4)nn23)CC1 [compound 473]
8,3,Cc1cccc(Nc2c(-c3ccc(F)cc3F)c(Cl)nc3nc(C)nn23)c1 [compound 456]
9,2.02,Cc1nc2nc(Cl)c(-c3c(F)cccc3Cl)c(N3CCC(O)C3)n2n1 (stereo not drawn) [compound 278]
10,2.53,CC(=O)CC(C)(C)Nc1c(-c2ccc(F)cc2F)c(Cl)nc2nc(C)nn12 [compound 407]
11,2.54,C#CCN(C)c1c(-c2c(F)cccc2F)c(Cl)nc2nc(C)nn12 [compound 331]
12,3.9,CC1CCCN1c1c(-c2c(F)cc(F)cc2F)c(Cl)nc2nc(C3CC3)nn12 (stereo not drawn) [compound 471]
13,3.28,CCN(Cc1ccco1)c1c(-c2c(F)cccc2F)c(Cl)nc2nc(C)nn12 [compound 340]
14,3.66,CCC(C)Nc1c(-c2c(F)cccc2Cl)c(Cl)nc2nc(C3CC3)nn12 (stereo not drawn) [compound 478]
15,2.37,Cc1nc2nc(Cl)c(-c3c(F)cccc3F)c(N(C)C)n2n1 [compound 418]
16,3.49,Cc1nc2nc(Cl)c(-c3ccc(F)cc3F)c(N3CCC(C(F)(F)F)CC3)n2n1 [compound 293]

# Same assay, conditions: HPLC, gradient method, acetonitrile/0.1% aqueous phosphoric acid; EEC directive 79/831 Annex V. A8
row,logP,SMILES
1,2.62,CCOC(=O)CN(C)c1c(-c2c(F)cccc2F)c(Cl)nc2nc(C)nn12 [compound 562]
2,3.98,CC(Nc1c(-c2c(F)cccc2F)c(Cl)nc2nc(C3CC3)nn12)C(F)(F)F (stereo not drawn) [compound 764]
3,2.63,Cc1nc2nc(Cl)c(-c3c(F)cccc3F)c(NCCC(F)(F)F)n2n1 [compound 184]
4,3.36,Fc1ccc(-c2c(Cl)nc3nc(C4CC4)nn3c2N2CCCC2)c(F)c1 [compound 606]
5,3.06,C=CCN(C)c1c(-c2ccc(F)cc2F)c(Cl)nc2nc(C)nn12 [compound 203]
6,3.17,CNc1c(-c2c(F)cc(F)cc2F)c(Cl)nc2nc(C(F)(F)F)nn12 [compound 108]
7,3.05,CCc1nc2nc(Cl)c(-c3c(F)cc(F)cc3F)c(NNC(C)C)n2n1 [compound 49]
8,3.63,Fc1cccc(Cl)c1-c1c(Cl)nc2nc(C3CC3)nn2c1N1CCC(F)CC1 [compound 707]
9,2.48,Cc1nc2nc(Cl)c(-c3c(F)cccc3Cl)c(N3CCOCC3)n2n1 [compound 246]
10,3.68,CC(C)NNc1c(-c2c(F)cc(F)cc2F)c(Cl)nc2nc(C(F)(F)F)nn12 [compound 84]
11,3.89,Fc1cc(F)c(-c2c(Cl)nc3nc(C(F)(F)F)nn3c2NCC2CC2)c(F)c1 [compound 111]
12,3.81,CC(NNc1c(-c2ccc(F)cc2Cl)c(Cl)nc2nc(C3CC3)nn12)C1CC1 (stereo not drawn) [compound 620]
13,3.01,Cc1nc2nc(Cl)c(-c3c(F)cc(F)cc3F)c(NC(C)C(F)(F)F)n2n1 (stereo not drawn) [compound 12]
14,3.57,CCc1nc2nc(Cl)c(-c3c(F)cc(F)cc3F)c(N3CC(C)OC(C)C3)n2n1 (stereo not drawn) [compound 71]
15,3.47,CC(C)CN(N)c1c(-c2c(F)cccc2F)c(Cl)nc2nc(C3CC3)nn12 [compound 754]
16,3.28,Cc1nc2nc(Cl)c(-c3ccccc3Cl)c(NC3CCCC3)n2n1 [compound 213]
17,3.42,Cc1nc2nc(Cl)c(-c3c(F)cc(F)cc3F)c(N3OCCCC3C)n2n1 (stereo not drawn) [compound 686]
18,2.85,Cc1nc2nc(Cl)c(-c3c(F)cc(F)cc3F)c(NCCC(F)(F)F)n2n1 [compound 70]
19,2.46,Cc1nc2nc(Cl)c(-c3c(F)cccc3F)c(NOC(C)C)n2n1 [compound 144]
20,3.41,Cc1nc2nc(Cl)c(-c3ccc(Cl)cc3Cl)c(N3OC4CCC3C4)n2n1 (stereo not drawn) [compound 780]
21,4.14,CC(C)C(C)Nc1c(-c2ccccc2Cl)c(Cl)nc2nc(C3CC3)nn12 (stereo not drawn) [compound 579]
22,3.41,C=C(C)CN(C)c1c(-c2ccc(F)cc2F)c(Cl)nc2nc(C)nn12 [compound 206]

row,logP,SMILES
1,2.85,CCc1nc2nc(Cl)c(-c3c(F)cc(F)cc3F)c(NC3CC3)n2n1 [compound 79]
2,4.13,CCN(CC)c1c(-c2ccc(F)cc2Cl)c(Cl)nc2nc(C3CC3)nn12 [compound 632]
3,4.77,C=C(C)CN(CC)c1c(-c2ccc(F)cc2Cl)c(Cl)nc2nc(C3CC3)nn12 [compound 630]
4,3.04,CCCCNc1c(-c2ccc(F)cc2F)c(Cl)nc2nc(C)nn12 [compound 192]
5,2.13,COC(=O)CNc1c(-c2c(F)cc(F)cc2F)c(Cl)nc2nc(C)nn12 [compound 125]
6,3.47,CCc1nc2nc(Cl)c(-c3c(F)cc(F)cc3F)c(N(N)CC(C)C)n2n1 [compound 127]
7,2.7,Cc1nc2nc(Cl)c(-c3c(F)cc(F)cc3F)c(NNC(C)C)n2n1 [compound 28]
8,3.52,Cc1nc2nc(Cl)c(-c3c(F)cc(F)cc3F)c(N3C(C)C=CC3C)n2n1 (stereo not drawn) [compound 117]
9,3.92,COC(=O)C1CCCCN1c1c(-c2ccc(F)cc2F)c(Cl)nc2nc(C3CC3)nn12 (stereo not drawn) [compound 733]
10,2.15,Cc1nc2nc(Cl)c(-c3c(F)cc(F)cc3F)c(N3CCCC(O)C3)n2n1 (stereo not drawn) [compound 99]
11,3.98,Fc1ccc(-c2c(Cl)nc3nc(C4CC4)nn3c2NC2CCCC(C(F)(F)F)C2)c(F)c1 (stereo not drawn) [compound 658]
12,3.96,CCCN(Cc1cccs1)c1c(-c2c(F)cccc2F)c(Cl)nc2nc(C)nn12 [compound 570]
13,3.6,CCCCNc1c(-c2ccc(F)cc2F)c(Cl)nc2nc(C3CC3)nn12 [compound 645]
14,2.62,Cc1nc2nc(Cl)c(-c3ccccc3Cl)c(N(C)CC3OCCO3)n2n1 [compound 219]
15,1.43,CN1CCN(c2c(-c3ccc(F)cc3F)c(Cl)nc3nc(C4CC4)nn23)CC1 [compound 735]
16,4.95,CCC1=CCN(c2c(-c3ccc(F)cc3F)c(Cl)nc3nc(C(F)(F)F)nn23)CC1 [compound 801]
17,3.2,CCCNc1c(-c2ccc(F)cc2F)c(Cl)nc2nc(C3CC3)nn12 [compound 649]
18,1.28,Cc1nc2nc(Cl)c(-c3c(F)cccc3F)c(N(C)CCN(C)C)n2n1 [compound 561]
19,3.36,Cc1nc2nc(Cl)c(-c3c(F)cccc3F)c(N3CCC(C(F)(F)F)CC3)n2n1 [compound 180]
20,3.71,CCc1nc2nc(Cl)c(-c3c(F)cc(F)cc3F)c(N(CC)CC)n2n1 [compound 77]
21,2.52,Cc1nc2nc(Cl)c(-c3c(F)cccc3F)c(NC(C)C)n2n1 [compound 174]
22,2.42,N#CCNc1c(-c2ccc(F)cc2F)c(Cl)nc2nc(C3CC3)nn12 [compound 713]
